From patent US20220119375A1, “3-ARYLOXY-3-ARYL-PROPYLAMINE COMPOUND AND USES THEREOF” (Zhangzhou Pien Tze Huang Pharmaceutical Co., Ltd., priority 2018, published 2022)

Experiments:
[1] = system: SH—SY5Y cells; experiment: Cytotoxicity test (CCK-8), neurotoxicity; type: cell-based; conditions: Homo sapiens, 72 h
Experimental: (§1) HepG-2 and SH—SY5Y cells were placed in 10 cm dish and cultured at 37° C., 5% CO2 in a cell incubator. Trypsin was used to digest and resuspend cells and cells were counted. The cells were transferred to 96-well plate with 8000 cells in a well (100 μl/well). A serial of gradient concentration dilutions of compound with 2-fold dilution were prepared, and the system was 100 μL/well. The supernatant of cell culture system in the 96-well plate was removed on the first day, and fresh-prepared drug concentration system was add into culture plate wells (duplicate wells were set). The cells were cultured at 37° C., 5% CO2 in a cell incubator for 72 h. After the cell culture was completed, the supernatant of cell culture system was removed from 96-well plate, 100 μl of detection solution containing 10% CCK-8 medium was added into each well, and the cells were cultured at 37° C., 5% CO2 in a cell incubator for 1 h. Microplate reader was used to measure the absorbance at 450 nm. Data was processed to calculate cytotoxicity, and IC50 was calculated by GraphPad Prism. […]
(§2) A (Dosing): the absorbance of wells containing cells, CCK-8 solution and drug solution.
(§3) A (control): the absorbance of wells containing medium and CCK-8 solution and without cells.
(§4) A (0 Dosing): the absorbance of wells containing cells and CCK-8 solution but without drug solution.

[2] = system: HepG2 cell; experiment: Cytotoxicity test (CCK-8), hepatotoxicity; type: cell-based; conditions: Homo sapiens, 72 h
Experimental: as §1, §2, §3, §4

[3] = system: C57BL/6 mice, ICS model; experiment: mice ICS model (fibromyalgia), mechanical allodynia test; type: in vivo, mouse; conditions: 10 mg/kg oral
Experimental: After completely dissolved, the duloxetine was administered orally. The volume of administration was 5 ml/kg.
10 mg/kg compound Ic-1:17 mg of compound Ic-1 was weighed, dissolved in saline and diluted to 8.5 mL. After completely dissolved, the compound Ic-1 was administered orally. The volume of administration was 5 ml/kg.
Male C57BL/6 mice weighed 18-22 g were selected at the beginning of experiment. Each cage had 4 mice which were allowed to feed and drink water freely. Each experimental group had 12 mice, and the experimental mice were labeled by tail labeling method.
Day 0: At 4:30 pm, the mice were put in a plexiglass box with stainless steel mesh, and then the plexiglass box was put in cold environment (4±2° C.) overnight. The mice were allowed to feed freely and drink, and agar was used to replace water.
Day 1: At 10:00 am, the mice were delivered to room temperature (24±2° C.) environment for 30 min, and then the mice were delivered to cold environment for 30 min. The above steps were repeated until 4:[…], and the mice were put in cold environment overnight.
Day 2: the operation on day 1 was repeated.
Day 3: the mice were taken out from cold environment at 10:00 am.
The compounds were administered orally according to the schedule of experiment, and the dosage was 10 mg/kg.
On the fourth day after modeling, the pre-administration mechanical allodynia test was performed on the animals. Animals with PWT value greater than 0.5 g were excluded and were not used for experiments. On the fifth day after modeling, the animals were tested for mechanical allodynia at 0.5 h, 1 h, and 2 h after the administration of compounds. […]
During the test, rapid withdrawal of animal claw was recorded as pain response. When the test fiber was removed from animal skin, the withdrawal of animal claw was also recorded as pain response. If animal moved, the pain response was not recorded, and the test was repeated. […] The maximum strength of tested fiber was 4.17 (1.4 g). • The test results were recorded in Table 4 below, wherein pain response was recorded as X and no pain response was recorded as O. […]

CNCC[C@H](Oc1cccc2ccccc12)c1cccs1 [Duloxetine (S configuration), Duloxetine]
IC50 [1]: 28 µM | IC50 [2]: 33 µM | PWT (g) Mean ± SD ([3]; 0.5 h after administration): 0.416 ± 0.140 g | PWT (g) Mean ± SD ([3]; 1 h after administration): 0.648 ± 0.155 g | PWT (g) Mean ± SD ([3]; 2 h after administration): 0.530 ± 0.235 g
